Assay results taken from patent US10265307B2, “Thiazolecarboxamides and pyridinecarboxamide compounds useful as Pim kinase inhibitors” (Incyte Corporation, priority 2013, dated 2019).

How the values were obtained:
Assay type in all cases: biochemical
Pim-1 = Pim-1 (Homo sapiens (Human), UniProt P11309); test: Pim-1 kinase assay; conditions: 1 mM ATP; read-out: Pim1 IC50
Description: Supplementation of the STOP buffer with beads and stopping the reactions were done under reduced light. Prior to the stopping reactions STOP buffer with beads was pre-incubated for 1 h in the dark at room temperature. After stopping the reactions, plates were incubated for 1 h in the dark at room temperature before reading on a PHERAstar FS plate reader (BMG Labtech) under reduced light.

Pim-2 = Pim-2 (Homo sapiens (Human), UniProt Q9P1W9); test: Pim-2 kinase assay; conditions: 1 mM ATP; read-out: Pim2 IC50
Pim-3 = Pim-3 (Homo sapiens (Human), UniProt Q86V86); test: Pim-3 kinase assay; conditions: 1 mM ATP; read-out: Pim3 IC50
Outline: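 AlphaScreen-type assay: […] Pim-3 phosphorylates 0.05 μM biotin-BAD peptide with 1 mM ATP, 1 h at 25 °C, pH 7.5 Tris buffer with MgCl2 and DTT. EDTA stop with phospho-BAD (Ser112) antibody and donor/acceptor beads, 1 h dark incubation before reading.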

Sequence of Pim-1 (P11309 whole entry): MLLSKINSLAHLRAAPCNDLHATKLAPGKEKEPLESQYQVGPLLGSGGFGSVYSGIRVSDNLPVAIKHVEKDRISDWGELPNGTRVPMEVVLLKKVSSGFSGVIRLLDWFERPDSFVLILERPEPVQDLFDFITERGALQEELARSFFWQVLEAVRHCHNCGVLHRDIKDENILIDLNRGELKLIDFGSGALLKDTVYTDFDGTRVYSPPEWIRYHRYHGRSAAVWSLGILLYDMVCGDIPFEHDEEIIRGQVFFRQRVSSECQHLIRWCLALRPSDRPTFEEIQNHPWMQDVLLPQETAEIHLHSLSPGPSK
Sequence of Pim-2 (Q9P1W9 whole entry): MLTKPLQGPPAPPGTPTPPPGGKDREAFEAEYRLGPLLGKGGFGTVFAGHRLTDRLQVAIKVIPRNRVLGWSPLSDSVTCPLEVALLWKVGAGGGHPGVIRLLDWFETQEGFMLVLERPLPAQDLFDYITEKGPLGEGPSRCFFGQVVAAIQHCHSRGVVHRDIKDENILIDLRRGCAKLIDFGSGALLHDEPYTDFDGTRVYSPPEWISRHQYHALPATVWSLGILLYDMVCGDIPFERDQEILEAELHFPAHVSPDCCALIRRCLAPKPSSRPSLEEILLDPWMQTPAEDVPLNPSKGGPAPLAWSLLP

For `Nc1sc(-c2c(F)cccc2F)nc1C(=O)Nc1cnc2c(c1N1CCC[C@H](N)C1)CCC2` [Example 14, 5-Amino-N-{4-[(3S)-3-aminopiperidin-1-yl]-6,7-dihydro-5H-cyclopenta[b]pyridin-3-yl}-2-(2,6-difluorophenyl)-1,3-thiazole-4-carboxamide], the IC50 (Pim-1) was ≤ 100 nM, the IC50 (Pim-2) was ≤ 100 nM and the IC50 (Pim-3) was ≤ 100 nM.
`COC1CCc2c1ncc(NC(=O)c1nc(-c3c(F)cccc3F)sc1N)c2N1CCC[C@H](N)C1` (stereo partly drawn) [Example 17, 5-Amino-N-{4-[(3S)-3-aminopiperidin-1-yl]-7-methoxy-6,7-dihydro-5H-cyclopenta[b]pyridin-3-yl}-2-(2,6-difluorophenyl)-1,3-thiazole-4-carboxamide] was tested, and the IC50 (Pim-1) was ≤ 100 nM, the IC50 (Pim-2) was 100 to 1000 nM and the IC50 (Pim-3) was ≤ 100 nM.
With `Nc1sc(-c2c(F)cccc2F)nc1C(=O)Nc1cnc2c(c1N1CCC[C@H](N)C1)CCC2=O` [Example 20, 5-Amino-N-{4-[(3S)-3-aminopiperidin-1-yl]-7-oxo-6,7-dihydro-5H-cyclopenta[b]pyridin-3-yl}-2-(2,6-difluorophenyl)-1,3-thiazole-4-carboxamide] the IC50 (Pim-1) was ≤ 100 nM, the IC50 (Pim-2) was ≤ 100 nM and the IC50 (Pim-3) was ≤ 100 nM.
With `N[C@H]1CCCN(c2c(NC(=O)c3ccc(F)c(-c4c(F)cccc4F)n3)cnc3c2CCC3)C1` [Example 21, N-{4-[(3S)-3-Aminopiperidin-1-yl]-6,7-dihydro-5H-cyclopenta[b]pyridin-3-yl}-6-(2,6-difluorophenyl)-5-fluoropyridine-2-carboxamide] the IC50 (Pim-1) was ≤ 100 nM, the IC50 (Pim-2) was ≤ 100 nM and the IC50 (Pim-3) was ≤ 100 nM.
For `C[C@H]1CN(c2c(NC(=O)c3nc(-c4c(F)cccc4F)sc3N)cnc3c2CCC3)C[C@@H](N)[C@@H]1O` [Example 28, 5-Amino-N-{4-[(3R,4R,5S)-3-amino-4-hydroxy-5-methylpiperidin-1-yl]-6,7-dihydro-5H-cyclopenta[b]pyridin-3-yl}-2-(2,6-difluorophenyl)-1,3-thiazole-4-carboxamide], the IC50 (Pim-1) was ≤ 100 nM, the IC50 (Pim-2) was ≤ 100 nM and the IC50 (Pim-3) was ≤ 100 nM.
For `Nc1sc(-c2c(F)cccc2F)nc1C(=O)Nc1cnc2c(c1N1CCC[C@H](N)C1)CCCN2` [Example 31, 5-Amino-N-{4-[(3S)-3-aminopiperidin-1-yl]-5,6,7,8-tetrahydro-1,8-naphthyridin-3-yl}-2-(2,6-difluorophenyl)-1,3-thiazole-4-carboxamide], the IC50 (Pim-1) was ≤ 100 nM, the IC50 (Pim-2) was ≤ 100 nM and the IC50 (Pim-3) was ≤ 100 nM.
With `Nc1cc(F)c(-c2c(F)cccc2F)nc1C(=O)Nc1cnc2c(c1N1CCC[C@H](N)C1)CCCN2` [Example 32, 3-Amino-N-{4-[(3S)-3-aminopiperidin-1-yl]-5,6,7,8-tetrahydro-1,8-naphthyridin-3-yl}-6-(2,6-difluorophenyl)-5-fluoropyridine-2-carboxamide] the IC50 (Pim-1) was ≤ 100 nM, the IC50 (Pim-2) was ≤ 100 nM and the IC50 (Pim-3) was ≤ 100 nM.
In the case of `N[C@H]1CCCN(c2c(NC(=O)c3ccc(F)c(-c4c(F)cccc4F)n3)cnc3c2CCCN3)C1` [Example 33, N-{4-[(3S)-3-Aminopiperidin-1-yl]-5,6,7,8-tetrahydro-1,8-naphthyridin-3-yl}-6-(2,6-difluorophenyl)-5-fluoropyridine-2-carboxamide], the IC50 (Pim-1) is reported as ≤ 100 nM, the IC50 (Pim-2) is reported as 100 to 1000 nM and the IC50 (Pim-3) is reported as ≤ 100 nM.
For `Nc1sc(-c2c(F)cccc2F)nc1C(=O)Nc1cnc2[nH]ncc2c1N1CCC[C@H](N)C1` [Example 34, 5-Amino-N-{4-[(3S)-3-aminopiperidin-1-yl]-1H-pyrazolo[3,4-b]pyridin-5-yl}-2-(2,6-difluorophenyl)-1,3-thiazole-4-carboxamide], the IC50 (Pim-1) was ≤ 100 nM, the IC50 (Pim-2) was > 2000 nM and the IC50 (Pim-3) was ≤ 100 nM.
In the case of `N[C@H]1CCCN(c2c(NC(=O)c3csc(-c4c(F)cccc4F)n3)cnc3[nH]ncc23)C1` [Example 35, N-{4-[(3S)-3-aminopiperidin-1-yl]-1H-pyrazolo[3,4-b]pyridin-5-yl}-2-(2,6-difluorophenyl)-1,3-thiazole-4-carboxamide], the IC50 (Pim-1) is reported as > 40 nM, the IC50 (Pim-2) is reported as > 2000 nM and the IC50 (Pim-3) is reported as > 40 nM.
`C[C@@H]1C[C@H](N)CN(c2c(NC(=O)c3nc(-c4c(F)cccc4F)sc3N)cnc3c2CCO3)C1` [Example 36, 5-Amino-N-{4-[(3S,5R)-3-amino-5-methylpiperidin-1-yl]-2,3-dihydrofuro[2,3-b]pyridin-5-yl}-2-(2,6-difluorophenyl)-1,3-thiazole-4-carboxamide] was tested, and the IC50 (Pim-1) was ≤ 100 nM, the IC50 (Pim-2) was ≤ 100 nM and the IC50 (Pim-3) was ≤ 100 nM.
`C[C@@H]1C[C@H](N)CN(c2c(NC(=O)c3nc(-c4c(F)cccc4F)c(F)cc3N)cnc3c2CCO3)C1` [Example 38, 3-Amino-N-{4-[(3S,5R)-3-amino-5-methylpiperidin-1-yl]-2,3-dihydrofuro[2,3-b]pyridin-5-yl}-6-(2,6-difluorophenyl)-5-fluoropyridine-2-carboxamide] was tested, and the IC50 (Pim-1) was ≤ 100 nM, the IC50 (Pim-2) was ≤ 100 nM and the IC50 (Pim-3) was ≤ 100 nM.
`C[C@@H]1C[C@H](N)CN(c2c(NC(=O)c3ccc(F)c(-c4c(F)cccc4F)n3)cnc3c2CCO3)C1` [Example 39, N-{4-[(3S,5R)-3-Amino-5-methylpiperidin-1-yl]-2,3-dihydrofuro[2,3-b]pyridin-5-yl}-6-(2,6-difluorophenyl)-5-fluoropyridine-2-carboxamide] was tested, and the IC50 (Pim-1) was ≤ 100 nM, the IC50 (Pim-2) was ≤ 100 nM and the IC50 (Pim-3) was ≤ 100 nM.
In the case of `C[C@H]1CN(c2c(NC(=O)c3nc(-c4c(F)cccc4F)sc3N)cnc3c2CCO3)C[C@@H](N)[C@@H]1O` [Example 40, 5-Amino-N-{4-[(3R,4R,5S)-3-amino-4-hydroxy-5-methylpiperidin-1-yl]-2,3-dihydrofuro[2,3-b]pyridin-5-yl}-2-(2,6-difluorophenyl)-1,3-thiazole-4-carboxamide], the IC50 (Pim-1) is reported as ≤ 100 nM, the IC50 (Pim-2) is reported as ≤ 100 nM and the IC50 (Pim-3) is reported as ≤ 100 nM.
In the case of `C[C@H]1CN(c2c(NC(=O)c3ccc(F)c(-c4c(F)cccc4F)n3)cnc3c2CCO3)C[C@@H](N)[C@@H]1O` [Example 41, N-{4-[(3R,4R,5S)-3-Amino-4-hydroxy-5-methylpiperidin-1-yl]-2,3-dihydrofuro[2,3-b]pyridin-5-yl}-6-(2,6-difluorophenyl)-5-fluoropyridine-2-carboxamide], the IC50 (Pim-1) is reported as ≤ 100 nM, the IC50 (Pim-2) is reported as ≤ 100 nM and the IC50 (Pim-3) is reported as ≤ 100 nM.
With `Nc1sc(-c2c(F)cccc2F)nc1C(=O)Nc1cnc2c(c1N1C[C@@H](N)C[C@@H](C(F)(F)F)C1)CCO2` [Example 42, 5-Amino-N-{4-[(3S,5R)-3-amino-5-(trifluoromethyl)piperidin-1-yl]-2,3-dihydrofuro[2,3-b]pyridin-5-yl}-2-(2,6-difluorophenyl)-1,3-thiazole-4-carboxamide] the IC50 (Pim-1) was ≤ 100 nM, the IC50 (Pim-2) was ≤ 100 nM and the IC50 (Pim-3) was ≤ 100 nM.
In the case of `N[C@H]1C[C@@H](C(F)(F)F)CN(c2c(NC(=O)c3ccc(F)c(-c4c(F)cccc4F)n3)cnc3c2CCO3)C1` [Example 43, N-{4-[(3S,5R)-3-amino-5-(trifluoromethyl)piperidin-1-yl]-2,3-dihydrofuro[2,3-b]pyridin-5-yl}-6-(2,6-difluorophenyl)-5-fluoropyridine-2-carboxamide], the IC50 (Pim-1) is reported as ≤ 100 nM, the IC50 (Pim-2) is reported as ≤ 100 nM and the IC50 (Pim-3) is reported as ≤ 100 nM.
`N[C@H]1CCCN(c2c(NC(=O)c3ccc(F)c(-c4c(F)cccc4F)n3)cnc3c2CCC3=O)C1` [Example 50, N-{4-[(3S)-3-Aminopiperidin-1-yl]-7-oxo-6,7-dihydro-5H-cyclopenta[b]pyridin-3-yl}-6-(2,6-difluorophenyl)-5-fluoropyridine-2-carboxamide] was tested, and the IC50 (Pim-1) was ≤ 100 nM, the IC50 (Pim-2) was 100 to 1000 nM and the IC50 (Pim-3) was ≤ 100 nM.
